# In patent publication US5574008A, “Biologically active fragments of glucagon-like insulinotropic peptide” (Eli Lilly and Company, priority 1994, dated 1996):
# System: fasted normal Sprague-Dawley rats
# Test: In vivo hyperglycemic clamp assay (glucose up-take assay)
# Set-up: species or system rat
# Conditions: 0.3 nmol/kg iv bolus at 60 min
# From the text: In vivo Hyperglycemic Clamp Assay (Glucose Up-take Assay) Male Sprague-Dawley rats (Charles Rivers) weighing about 350 grams were allowed to acclimate to their surroundings for a week after which they were cannulated under isoflurane inhalation anesthetic. Two catheters were implanted into the jugular vein for infusions of glucose and GLP-1 fragment. Another catheter was implanted into the carotid artery for sampling blood. The catheters were exteriorized through the skin at the vertex of the head, filled with a glycerol/heparin solution (30 ml glycerol/10 ml heparin from a 1000 u/ml stock solution), and closed off with a one centimeter stainless steel plug. The rats were housed individually in wire mesh cages and were fed ad libitum on a standard rat chow diet. Each animal was given at least one week to recover from surgery before testing any GLP-1 fragments for biological activity. The rats were fasted overnight; on the morning of the experiment, sampling tubes were connected to the indwelling catheters, and the tubes were enclosed in a light weight stainless steel spring for protection. The rats were acclimated to their cages for 15 minutes. All experiments were carried out in conscious, free moving rats. A basal blood sample was taken for measurement of insulin and glucose levels at time zero on the timer. The rats were then given a bolus of 20% dextrose to raise plasma glucose to either 150 mg/dl (8.3 mM) or 200 mg/dl (11.2 mM). Plasma glucose levels were maintained at the chosen level by measuring plasma glucose levels approximately every 5 minutes and adjusting the calibrated variable infusion pump as needed to maintain the established blood glucose levels. Blood samples were collected at 45 and 60 minutes for the control period measurements. At 60 minutes into the clamp, 0.3 nmol/kg of the experimental GLP-1 fragment was injected via the jugular vein catheter and flushed with saline. […] The blood samples were centrifuged in a micro centrifuge to separate the plasma component. Plasma glucose was measured on a Beckman Glucose analyzer II using the glucose oxidase method. Plasma insulin was determined by standard radio immunoassay as per the manufacturer's directions (Diagnostic Products Corp.). The activity of the GLP-1 fragment was determined by the percentage change in glucose infusion rate and change in insulin secreted. These two parameters were compared to control rats that received only diluent. Note: This assay is based on reports that GLP-1 insulinotropic action is glucose dependent. The assay protocol eliminates variability due to falling glucose levels in other protocols using the "bolus" method. The hyperglycemic clamp involved administration of variable amounts of glucose (20% dextrose) to maintain glucose at a constant level of 8.3 or 11.2 mM in fasted normal Sprague-Dawley rats. The hyperglycemic clamp is maintained for 1 hour after which the GLP-1 fragment is injected as a bolus through the jugular vein. […] The glucose infusion rate (GIR) in the last 15 minutes of the control period and after the injection of the peptide is calculated. The activity of the peptide is determined by the increase in glucose infusion rate and change in insulin secreted after the injection of the peptide.
# [1] = 150 mg/dl plasma glucose clamp, time 60 min
# [2] = 150 mg/dl plasma glucose clamp, time 62 min
# [3] = 150 mg/dl plasma glucose clamp, time 64 min
# [4] = 150 mg/dl plasma glucose clamp, time 66 min
# [5] = 150 mg/dl plasma glucose clamp, time 68 min
# [6] = 150 mg/dl plasma glucose clamp, time 70 min
# [7] = 150 mg/dl plasma glucose clamp, time 75 min
# [8] = 150 mg/dl plasma glucose clamp, time 80 min
# [9] = 150 mg/dl plasma glucose clamp, time 85 min
# [10] = 150 mg/dl plasma glucose clamp, time 90 min
# [11] = 150 mg/dl plasma glucose clamp, time 100 min
# [12] = 150 mg/dl plasma glucose clamp, time 110 min
# [13] = 150 mg/dl plasma glucose clamp, time 120 min
# [14] = 150 mg/dl plasma glucose clamp, time 130 min
# [15] = 150 mg/dl plasma glucose clamp, time 140 min
# [16] = 150 mg/dl plasma glucose clamp, time 150 min
# [17] = 200 mg/dl plasma glucose clamp, time 60 min
# [18] = 200 mg/dl plasma glucose clamp, time 62 min
# [19] = 200 mg/dl plasma glucose clamp, time 64 min
# [20] = 200 mg/dl plasma glucose clamp, time 66 min
# [21] = 200 mg/dl plasma glucose clamp, time 68 min
# [22] = 200 mg/dl plasma glucose clamp, time 70 min
# [23] = 200 mg/dl plasma glucose clamp, time 75 min
# [24] = 200 mg/dl plasma glucose clamp, time 80 min
# [25] = 200 mg/dl plasma glucose clamp, time 85 min
# [26] = 200 mg/dl plasma glucose clamp, time 90 min
# [27] = 200 mg/dl plasma glucose clamp, time 100 min
# [28] = 200 mg/dl plasma glucose clamp, time 110 min
# [29] = 200 mg/dl plasma glucose clamp, time 120 min
# [30] = 200 mg/dl plasma glucose clamp, time 130 min
# [31] = 200 mg/dl plasma glucose clamp, time 140 min
# [32] = 200 mg/dl plasma glucose clamp, time 150 min
substance,measurement,setting,value
GLP-1(7-37)OH,% Change in GIR,[1],11.15%
same,Plasma Insulin Change,[1],1.140 ng/mL
same,% Change in GIR,[2],-0.20%
same,Plasma Insulin Change,[2],7.233 ng/mL
same,% Change in GIR,[3],11.15%
same,Plasma Insulin Change,[3],1.464 ng/mL
same,% Change in GIR,[4],1.66%
same,Plasma Insulin Change,[4],0.324 ng/mL
same,% Change in GIR,[5],5.64%
same,Plasma Insulin Change,[5],-0.016 ng/mL
same,% Change in GIR,[6],19.95%
same,Plasma Insulin Change,[6],-0.375 ng/mL
same,% Change in GIR,[7],71.90%
same,Plasma Insulin Change,[7],-0.465 ng/mL
same,% Change in GIR,[8],92.63%
same,Plasma Insulin Change,[8],-0.357 ng/mL
same,% Change in GIR,[9],61.76%
same,Plasma Insulin Change,[9],-0.020 ng/mL
same,% Change in GIR,[10],14.74%
same,Plasma Insulin Change,[10],-0.181 ng/mL
same,% Change in GIR,[11],-26.22%
same,Plasma Insulin Change,[11],-0.358 ng/mL
same,% Change in GIR,[12],-38.57%
same,Plasma Insulin Change,[12],-0.174 ng/mL
same,% Change in GIR,[13],-48.67%
same,Plasma Insulin Change,[13],-0.326 ng/mL
same,% Change in GIR,[14],-54.82%
same,Plasma Insulin Change,[14],-0.578 ng/mL
same,% Change in GIR,[15],-58.43%
same,Plasma Insulin Change,[15],-0.367 ng/mL
same,% Change in GIR,[16],-63.58%
same,Plasma Insulin Change,[16],-0.465 ng/mL
same,% Change in GIR,[17],20.449%
same,Plasma Insulin Change,[17],1.887 ng/mL
same,% Change in GIR,[18],25.050%
same,Plasma Insulin Change,[18],11.101 ng/mL
same,% Change in GIR,[19],23.583%
same,Plasma Insulin Change,[19],4.219 ng/mL
same,% Change in GIR,[20],15.374%
same,Plasma Insulin Change,[20],3.246 ng/mL
same,% Change in GIR,[21],19.465%
same,Plasma Insulin Change,[21],1.359 ng/mL
same,% Change in GIR,[22],50.305%
same,Plasma Insulin Change,[22],-0.208 ng/mL
same,% Change in GIR,[23],71.461%
same,Plasma Insulin Change,[23],-0.692 ng/mL
same,% Change in GIR,[24],88.390%
same,Plasma Insulin Change,[24],-0.456 ng/mL
same,% Change in GIR,[25],86.482%
same,Plasma Insulin Change,[25],-0.177 ng/mL
same,% Change in GIR,[26],55.677%
same,Plasma Insulin Change,[26],-0.250 ng/mL
same,% Change in GIR,[27],11.304%
same,Plasma Insulin Change,[27],-0.301 ng/mL
same,% Change in GIR,[28],-12.411%
same,Plasma Insulin Change,[28],-0.222 ng/mL
same,% Change in GIR,[29],-7.123%
same,Plasma Insulin Change,[29],-0.405 ng/mL
same,% Change in GIR,[30],-17.745%
same,Plasma Insulin Change,[30],-0.590 ng/mL
same,% Change in GIR,[31],-15.311%
same,Plasma Insulin Change,[31],-0.289 ng/mL
same,% Change in GIR,[32],-21.279%
same,Plasma Insulin Change,[32],-0.280 ng/mL
GLP-1(R26)(9-36)NH2 [GLP-1(R26) (9-36)NH2],% Change in GIR,[17],19.020%
same,Plasma Insulin Change,[17],1.692 ng/mL
same,% Change in GIR,[18],2.128%
same,Plasma Insulin Change,[18],0.693 ng/mL
same,% Change in GIR,[19],3.752%
same,Plasma Insulin Change,[19],0.025 ng/mL
same,% Change in GIR,[20],11.602%
same,Plasma Insulin Change,[20],0.204 ng/mL
same,% Change in GIR,[21],29.976%
same,Plasma Insulin Change,[21],0.063 ng/mL
same,% Change in GIR,[22],37.819%
same,Plasma Insulin Change,[22],0.185 ng/mL
same,% Change in GIR,[23],50.568%
same,Plasma Insulin Change,[23],-0.125 ng/mL
same,% Change in GIR,[24],42.526%
same,Plasma Insulin Change,[24],0.134 ng/mL
same,% Change in GIR,[25],16.548%
same,Plasma Insulin Change,[25],-0.550 ng/mL
same,% Change in GIR,[26],-6.165%
same,Plasma Insulin Change,[26],-0.336 ng/mL
same,% Change in GIR,[27],-18.164%
same,Plasma Insulin Change,[27],0.027 ng/mL
same,% Change in GIR,[28],-35.351%
same,Plasma Insulin Change,[28],-0.100 ng/mL
same,% Change in GIR,[29],-48.404%
same,Plasma Insulin Change,[29],0.399 ng/mL
